Laboratory results as given in US20230021483A1, “[…] […] METHOD AND CLASSIFICATION OF PHARMACEUTICAL COMPONENTS BY USING TRANSCRIPTOMES” (National Institutes of Biomedical Innovation, Health and …, priority 2016, published 2023).

Assays:
Assay type in all cases: in vivo, C57BL/6 mice
[1] = system: spleen (SP); test: Whole organ transcriptome (GeneChip microarray) of spleen 6 h after adjuvant administration: sDEGs, hierarchical clustering; settings: i.d. administration
[2] = system: inguinal lymph nodes (LN); test: Whole organ transcriptome (GeneChip microarray) of draining inguinal lymph nodes 6 h after adjuvant administration: sDEGs, gene modules, hierarchical clustering; settings: lymph node; on adjuvant group (cluster) in LN: key: G1 (interferon signaling); G2 (metabolism of lipids and lipoproteins); G3 (response to stress); G4 (response to wounding); G5 (phosphate-containing compound metabolic process); G6 (phagosome)
[3] = system: liver (LV); test: Whole organ transcriptome (GeneChip microarray) of liver 6 h after adjuvant administration: sDEGs, hierarchical clustering; settings: i.d. administration, liver, 6 h after adjuvant
[4] = system: preferentially upregulated genes in LV, SP, LN; test: Z-score-based differential gene expression analysis (adjuvant group- or adjuvant-associated genes, 40 module mapping, TargetMine annotation); settings: ID, LV
In short: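 Per-sample fold-change values converted to gene-wise z-scores within each organ's data set, then triplicate z-scores summed per adjuvant. Genes with summed score >3 taken as preferentially expressed; gene groups defined by combined per-adjuvant z-score thresholds (z>1 to z>3) specific to each organ.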

Monophosphoryl lipid A [MPLA]
−0: Adar 1434268_at (Group G1, Modules 20) ([4]; sample x1) | Tor1aip2 1418116_at (Group G1, Modules 20) ([4]; sample x1)
22: Number of gene probes with statistically significant changes (sDEGs), SP, Down ([1]; fold change <0.667, p<0.01, customized PA call=1, 6 h after adjuvant)
−0.5: Gm9706///Isg15 1431591_s_at (Group G1, Modules 20) ([4]; sample x1) | Ifit1 1450783_at (Group G1, Modules 20) ([4]; sample x1) | Ifit3 1449025_at (Group G1, Modules 20) ([4]; sample x1) | Rsad2 1436058_at (Group G1, Modules 20) ([4]; sample x1) | Stat1 1450033_a_at (Group G1, Modules 20) ([4]; sample x1) | Gm9706///Isg15 1431591_s_at (Group G1, Modules 20) ([4]; sample x2) | Ifit1 1450783_at (Group G1, Modules 20) ([4]; sample x2) | Ifit3 1449025_at (Group G1, Modules 20) ([4]; sample x2) | Irf7 1417244_a_at (Group G1, Modules 20) ([4]; sample x2) | Irgm1 1418825_at (Group G1, Modules 20) ([4]; sample x2) | Rnf213 1455500_at (Group G1, Modules 20) ([4]; sample x2) | Rsad2 1436058_at (Group G1, Modules 20) ([4]; sample x2) | Stat1 1450033_a_at (Group G1, Modules 20) ([4]; sample x2) | Stat1 1450034_at (Group G1, Modules 20) ([4]; sample x2) | Ddx58 1436562_at (Group G1, Modules 20) ([4]; sample x3) | G3bp2 1421323_a_at (Group G1, Modules 20) ([4]; sample x3) | Gm9706///Isg15 1431591_s_at (Group G1, Modules 20) ([4]; sample x3) | Ifit1 1450783_at (Group G1, Modules 20) ([4]; sample x3) | Ifit3 1449025_at (Group G1, Modules 20) ([4]; sample x3) | Irf7 1417244_a_at (Group G1, Modules 20) ([4]; sample x3) | Mndal 1426906_at (Group G1, Modules 20) ([4]; sample x3) | Rnf213 1455500_at (Group G1, Modules 20) ([4]; sample x3) | Rsad2 1436058_at (Group G1, Modules 20) ([4]; sample x3) | Stat1 1450034_at (Group G1, Modules 20) ([4]; sample x3) | Tor1aip2 1435526_at (Group G1, Modules 20) ([4]; sample x3) | Trim12a 1437432_a_at (Group G1, Modules 20) ([4]; sample x3)
−0.1: Uba7 1426970_a_at (Group G1, Modules 20) ([4]; sample x1) | Ddx58 1456890_at (Group G1, Modules 20) ([4]; sample x2) | Tor1aip2 1435526_at (Group G1, Modules 20) ([4]; sample x2)
−0.3: Ddx58 1436562_at (Group G1, Modules 20) ([4]; sample x1) | Eif2ak2 1422005_at (Group G1, Modules 20) ([4]; sample x1) | G3bp2 1421323_a_at (Group G1, Modules 20) ([4]; sample x1) | H2-T10///H2-T22///H2-T9 1449875_s_at (Group G1, Modules 20) ([4]; sample x1) | Pml 1456103_at (Group G1, Modules 20) ([4]; sample x1) | Shisa5 1437503_a_at (Group G1, Modules 20) ([4]; sample x1) | Tdrd7 1426716_at (Group G1, Modules 20) ([4]; sample x1) | Adar 1434268_at (Group G1, Modules 20) ([4]; sample x2) | H2-T10///H2-T22///H2-T9 1449875_s_at (Group G1, Modules 20) ([4]; sample x2) | Pml 1448757_at (Group G1, Modules 20) ([4]; sample x2) | Shisa5 1437503_a_at (Group G1, Modules 20) ([4]; sample x2) | Tdrd7 1426716_at (Group G1, Modules 20) ([4]; sample x2) | Tor1aip2 1418116_at (Group G1, Modules 20) ([4]; sample x2) | Adar 1434268_at (Group G1, Modules 20) ([4]; sample x3) | Pml 1456103_at (Group G1, Modules 20) ([4]; sample x3) | Shisa5 1423986_a_at (Group G1, Modules 20) ([4]; sample x3)
−0.4: Ifih1 1426276_at (Group G1, Modules 20) ([4]; sample x1) | Irf7 1417244_a_at (Group G1, Modules 20) ([4]; sample x1) | Irgm1 1418825_at (Group G1, Modules 20) ([4]; sample x1) | Pml 1448757_at (Group G1, Modules 20) ([4]; sample x1) | Rnf213 1455500_at (Group G1, Modules 20) ([4]; sample x1) | Stat1 1450034_at (Group G1, Modules 20) ([4]; sample x1) | Tor1aip2 1418115_s_at (Group G1, Modules 20) ([4]; sample x1) | Trim12a 1437432_a_at (Group G1, Modules 20) ([4]; sample x1) | Adar 1425405_a_at (Group G1, Modules 20) ([4]; sample x2) | Ddx58 1436562_at (Group G1, Modules 20) ([4]; sample x2) | Eif2ak2 1422005_at (Group G1, Modules 20) ([4]; sample x2) | Ifih1 1426276_at (Group G1, Modules 20) ([4]; sample x2) | Mndal 1426906_at (Group G1, Modules 20) ([4]; sample x2) | Pml 1456103_at (Group G1, Modules 20) ([4]; sample x2) | Shisa5 1423986_a_at (Group G1, Modules 20) ([4]; sample x2) | Tor1aip2 1418115_s_at (Group G1, Modules 20) ([4]; sample x2) | Ddx58 1456890_at (Group G1, Modules 20) ([4]; sample x3) | Eif2ak2 1422005_at (Group G1, Modules 20) ([4]; sample x3) | H2-T10///H2-T22///H2-T9 1449875_s_at (Group G1, Modules 20) ([4]; sample x3) | Ifih1 1426276_at (Group G1, Modules 20) ([4]; sample x3) | Pml 1448757_at (Group G1, Modules 20) ([4]; sample x3) | Shisa5 1437503_a_at (Group G1, Modules 20) ([4]; sample x3) | Tdrd7 1426716_at (Group G1, Modules 20) ([4]; sample x3)
24: Number of gene probes with statistically significant changes (sDEGs), LV, Down ([3]; fold change <0.667, p<0.01, customized PA call=1)
18: Number of gene probes with statistically significant changes (sDEGs), LN, Down ([2]; i.d. administration, fold change <0.667, p<0.01, customized PA call=1, 6 h after adjuvant)
−0.2: Adar 1425405_a_at (Group G1, Modules 20) ([4]; sample x1) | Ddx58 1456890_at (Group G1, Modules 20) ([4]; sample x1) | Mndal 1426906_at (Group G1, Modules 20) ([4]; sample x1) | Shisa5 1423986_a_at (Group G1, Modules 20) ([4]; sample x1) | Tor1aip2 1435526_at (Group G1, Modules 20) ([4]; sample x1) | Uba7 1426970_a_at (Group G1, Modules 20) ([4]; sample x2) | Tor1aip2 1418116_at (Group G1, Modules 20) ([4]; sample x3)
9: Number of gene probes with statistically significant changes (sDEGs), SP, Up ([1]; fold change >1.5, p<0.01, customized PA call=1, 6 h after adjuvant) | Number of gene probes with statistically significant changes (sDEGs), LV, Up ([3]; fold change >1.5, p<0.01, customized PA call=1)
−0.6: G3bp2 1421323_a_at (Group G1, Modules 20) ([4]; sample x2) | Trim12a 1437432_a_at (Group G1, Modules 20) ([4]; sample x2) | Adar 1425405_a_at (Group G1, Modules 20) ([4]; sample x3) | Irgm1 1418825_at (Group G1, Modules 20) ([4]; sample x3) | Stat1 1450033_a_at (Group G1, Modules 20) ([4]; sample x3) | Tor1aip2 1418115_s_at (Group G1, Modules 20) ([4]; sample x3) | Uba7 1426970_a_at (Group G1, Modules 20) ([4]; sample x3)
8: Number of gene probes with statistically significant changes (sDEGs), LN, Up ([2]; i.d. administration, fold change >1.5, p<0.01, customized PA call=1, 6 h after adjuvant)
G1: adjuvant group (cluster) in LN ([2]; hierarchical clustering)
